# In ChEMBL document CHEMBL1201862, “PubChem BioAssay data set” (2004):
#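 Test compounds were applied to cells in 96-well plates for 48 hours at 5 doses. GI50: concentration for 50% inhibition of growth.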 The source made the active and inactive calls. No stated cut-off is given here; in the data, active = GI50 up to about 1.1 µM and inactive = higher. Where a SMILES comes first, the peptide text is derived from it. [ ]: non-standard residue; d: D form. The star is where a group is joined. Phe(2-OMe) = COc1ccccc1C[CH](N)C(=O)O; Cbz = O=C(OCc1ccccc1)*; OBn = c1ccc(CO*)cc1
# Tests used:
# Assay in all cases: NCI tumour cell line growth inhibition, 48 h
# HCT-15 = system: HCT-15
# UO-31 = system: UO-31
# SF-539 = system: SF-539
# NCI-H226 = system: NCI-H226
# U-251 = system: U-251
# SNB-75 = system: SNB-75
# SR = system: SR
# 786-0 = system: 786-0
# CAKI-1 = system: CAKI-1
# A549 = system: A549
# SN12C = system: SN12C
# HT-29 = system: HT-29
# SF-268 = system: SF-268
# Malme-3M = system: Malme-3M
# MDA-MB-231 = system: MDA-MB-231
# PC-3 = system: PC-3
# DU-145 = system: DU-145
# T47D = system: T47D
# MCF7 = system: MCF7
# NCI/ADR-RES = system: NCI/ADR-RES
Structure (SMILES),GI50 (HCT-15) [µM],GI50 (UO-31),GI50 (SF-539),GI50 (NCI-H226),GI50 (U-251),GI50 (SNB-75),GI50 (SR),GI50 (786-0),GI50 (CAKI-1),GI50 (A549),GI50 (SN12C),GI50 (HT-29),GI50 (SF-268),GI50 (Malme-3M),GI50 (MDA-MB-231),GI50 (PC-3),GI50 (DU-145),GI50 (T47D),GI50 (MCF7),GI50 (NCI/ADR-RES)
O=C1CSc2ccncc2N1,> 100,> 100 µM (inactive),> 100 µM (inactive),> 100 µM (inactive),> 100 µM (inactive),> 100 µM (inactive),> 100 µM (inactive),> 100 µM (inactive),> 100 µM (inactive),> 100 µM (inactive),> 100 µM (inactive),> 100 µM (inactive),> 100 µM (inactive),> 100 µM (inactive),–,–,–,–,–,–
CCCNC(=S)NNC(=O)CSc1nc(-c2ccccc2)c(-c2ccccc2)[nH]1,49.3,30.8 µM (inactive),90.6 µM (inactive),91.6 µM (inactive),56.1 µM (inactive),49.1 µM (inactive),29.2 µM (inactive),37 µM (inactive),33.3 µM (inactive),75.5 µM (inactive),74 µM (inactive),42 µM (inactive),> 100 µM (inactive),22.1 µM (inactive),–,–,–,–,–,–
CC(/C=C/C(=O)c1sc(C(N)=S)nc1C)=C\c1ccccc1,> 100,> 100 µM (inactive),> 100 µM (inactive),> 100 µM (inactive),> 100 µM (inactive),> 100 µM (inactive),31.9 µM (inactive),> 100 µM (inactive),23.4 µM (inactive),> 100 µM (inactive),> 100 µM (inactive),> 100 µM (inactive),> 100 µM (inactive),> 100 µM (inactive),–,–,–,–,–,–
CC/C(=N\NS(=O)(=O)c1ccccc1)c1ccccc1,> 100,> 100 µM (inactive),> 100 µM (inactive),> 100 µM (inactive),> 100 µM (inactive),> 100 µM (inactive),> 100 µM (inactive),> 100 µM (inactive),> 100 µM (inactive),> 100 µM (inactive),> 100 µM (inactive),> 100 µM (inactive),> 100 µM (inactive),> 100 µM (inactive),–,–,–,–,–,–
Cn1c(=O)c2[nH]cnc2n(CC(=O)O)c1=O,> 100,> 100 µM (inactive),> 100 µM (inactive),> 100 µM (inactive),> 100 µM (inactive),> 100 µM (inactive),> 100 µM (inactive),> 100 µM (inactive),> 100 µM (inactive),> 100 µM (inactive),> 100 µM (inactive),> 100 µM (inactive),> 100 µM (inactive),> 100 µM (inactive),–,–,–,–,–,–
COc1cc2[nH]c3c(c2cc1OC)CCN[C@]31CC[C@]2(CC3c4c(cc(OC)c(O)c42)CCN3C)C[C@H]1OC (stereo not given in full),18.8,> 10 µM (inactive),17.1 µM (inactive),45.5 µM (inactive),18 µM (inactive),21.5 µM (inactive),15.8 µM (inactive),15.7 µM (inactive),34.4 µM (inactive),25.1 µM (inactive),21 µM (inactive),22.3 µM (inactive),25.5 µM (inactive),21 µM (inactive),–,–,–,–,–,–
COc1ccc(/C=C/c2cc(OC)cc(OC)c2)cc1 [TRISMETHOXYRESVERATROL],4.57,18.2 µM (inactive),3.54 µM (inactive),5.43 µM (inactive),4.06 µM (inactive),4.82 µM (inactive),4.24 µM (inactive),9.66 µM (inactive),4.6 µM (inactive),6.32 µM (inactive),9.95 µM (inactive),3.88 µM (inactive),7.93 µM (inactive),6.12 µM (inactive),–,–,–,–,–,–
Cc1c2cnccc2nc2[nH]c3ccncc3c12,3.98,4.08 µM (inactive),6.73 µM (inactive),–,4.68 µM (inactive),> 100 µM (inactive),2.79 µM (inactive),3.24 µM (inactive),2.98 µM (inactive),2.94 µM (inactive),3.33 µM (inactive),5.6 µM (inactive),2.47 µM (inactive),3.33 µM (inactive),55 µM (inactive),4.56 µM (inactive),10.7 µM (inactive),12.4 µM (inactive),–,–
COC(=O)C(Cc1ccccc1OC)NC(=O)C(CC(=O)OCc1ccccc1)NC(=O)OCc1ccccc1 (stereo not given) (Cbz-Asp(OBn)-[Phe(2-OMe)]-OMe; configuration not given here),–,64.6 µM (inactive),–,> 100 µM (inactive),97.5 µM (inactive),> 100 µM (inactive),27.9 µM (inactive),> 100 µM (inactive),–,60.3 µM (inactive),–,65.3 µM (inactive),–,> 100 µM (inactive),–,60 µM (inactive),–,–,54 µM (inactive),–
C=CCN(CC=C)Cn1c(=S)sc2ccccc21,45,38.8 µM (inactive),55.6 µM (inactive),–,> 100 µM (inactive),> 100 µM (inactive),–,> 100 µM (inactive),15.3 µM (inactive),> 100 µM (inactive),> 100 µM (inactive),–,> 100 µM (inactive),–,54.3 µM (inactive),> 100 µM (inactive),> 100 µM (inactive),–,> 100 µM (inactive),> 100 µM (inactive)
CC(C)(C)/N=N/C(C)(C)N=C=O,> 100,> 100 µM (inactive),> 100 µM (inactive),> 100 µM (inactive),> 100 µM (inactive),> 100 µM (inactive),> 100 µM (inactive),> 100 µM (inactive),> 100 µM (inactive),> 100 µM (inactive),> 100 µM (inactive),> 100 µM (inactive),> 100 µM (inactive),> 100 µM (inactive),–,–,–,–,–,–
COC(=O)C1=CN(C2CCCCC2)C2(c3ccccc3)c3ccccc3C(=O)OC(=O)C12 (stereo not given),> 100,> 100 µM (inactive),> 100 µM (inactive),> 100 µM (inactive),99.3 µM (inactive),> 100 µM (inactive),–,> 100 µM (inactive),46.8 µM (inactive),95.5 µM (inactive),> 100 µM (inactive),62.2 µM (inactive),> 100 µM (inactive),> 100 µM (inactive),34.7 µM (inactive),71.6 µM (inactive),> 100 µM (inactive),–,> 100 µM (inactive),> 100 µM (inactive)
Cc1c(C)c(C)c(-n2c(=O)n(C)c(=O)n2C(C)(C)C)c(C)c1C,> 100,> 100 µM (inactive),> 100 µM (inactive),–,> 100 µM (inactive),> 100 µM (inactive),85.9 µM (inactive),> 100 µM (inactive),> 100 µM (inactive),> 100 µM (inactive),> 100 µM (inactive),–,> 100 µM (inactive),–,> 100 µM (inactive),> 100 µM (inactive),> 100 µM (inactive),> 100 µM (inactive),> 100 µM (inactive),–
COc1cc2c(oc(=O)c3c4oc([Si](C)(C)C)cc4cc(OC)c23)c2cccc(O)c12,> 100,> 100 µM (inactive),> 100 µM (inactive),> 100 µM (inactive),> 100 µM (inactive),36.4 µM (inactive),> 100 µM (inactive),> 100 µM (inactive),> 100 µM (inactive),> 100 µM (inactive),> 100 µM (inactive),> 100 µM (inactive),> 100 µM (inactive),> 100 µM (inactive),–,–,–,–,–,–
O=C1C2CC=CCC2C(=O)N1n1c(-c2ccccc2)n[nH]c1=O (stereo not given),> 100,> 100 µM (inactive),> 100 µM (inactive),> 100 µM (inactive),> 100 µM (inactive),–,> 100 µM (inactive),> 100 µM (inactive),> 100 µM (inactive),> 100 µM (inactive),> 100 µM (inactive),> 100 µM (inactive),> 100 µM (inactive),> 100 µM (inactive),> 100 µM (inactive),> 100 µM (inactive),–,> 100 µM (inactive),> 100 µM (inactive),> 100 µM (inactive)
O=c1[nH]c(=O)n(C2CC(O)C(CO)O2)cc1C(F)(C(F)(F)F)C(F)(F)F (stereo not given),> 100,> 100 µM (inactive),> 100 µM (inactive),> 100 µM (inactive),> 100 µM (inactive),> 100 µM (inactive),> 100 µM (inactive),> 100 µM (inactive),> 100 µM (inactive),–,> 100 µM (inactive),> 100 µM (inactive),> 100 µM (inactive),> 100 µM (inactive),–,–,–,–,–,–
COC(=O)C(=O)C(C(=O)C=C(C)C)C(=O)C(=O)Nc1ccc(C)cc1C (stereo not given),> 100,> 100 µM (inactive),> 100 µM (inactive),> 100 µM (inactive),> 100 µM (inactive),> 100 µM (inactive),> 100 µM (inactive),> 100 µM (inactive),> 100 µM (inactive),> 100 µM (inactive),> 100 µM (inactive),> 100 µM (inactive),> 100 µM (inactive),> 100 µM (inactive),–,–,–,–,–,–
CC1=C(C(=O)OC(C)(C)C)C(c2ccc([N+](=O)[O-])cc2)C(C(=O)OC(C)(C)C)=C(C)N1,36.5,19.4 µM (inactive),19.8 µM (inactive),21.3 µM (inactive),21.1 µM (inactive),24.1 µM (inactive),–,22.1 µM (inactive),28.9 µM (inactive),24.9 µM (inactive),19.8 µM (inactive),19.8 µM (inactive),21.7 µM (inactive),–,22.2 µM (inactive),26.7 µM (inactive),26.9 µM (inactive),14.7 µM (inactive),16.6 µM (inactive),–
